According to US4352803A, “Novel naphthyridine derivatives, intermediates thereof, processes for preparation thereof, and use thereof” (Dainippon Pharmaceutical Co., Ltd., priority 1978, dated 1982):
In brackets after ≈: the same amount, converted by molar mass. Read-outs that look alike come from different tables or passages of the source.

Legend:
Shigella flexneri 2a = experiment: In vitro antibacterial activity (MIC), Shigella flexneri 2a; assay type: cell-based; settings: read-out: minimum inhibitory concentration (MIC)
Excerpt: (§1) (MIC) (μg/ml) Method; Chemotherapy, 22(6), 1126 (1974)

[1] = tested on: Staphylococcus aureus 209P JC-1; experiment: In vitro antibacterial activity (MIC), Staphylococcus aureus 209P JC-1; assay type: cell-based; settings: Staphylococcus aureus 209P JC-1; read-out: minimum inhibitory concentration (MIC)
Excerpt: as §1

[2] = tested on: Pseudomonas aeruginosa No. 12; experiment: in vivo efficacy on the ascending kidney infection in mice; set-up: species or system mice (ddY-S); settings: for ED50: 120 h, ascending kidney infection with Pseudomonas aeruginosa No. 12, po, mice
Description: Female mice (ddY-S) weighing 22 to 30 g were anesthetized by intravenous injection of sodium pentobarbital at a dose of 50 mg/kg. Through a small suprapubic incision, the urinary bladder was exposed and then infected by injecting 0.1 ml of a 1:10,000 dilution of Pseudomonas aeruginosa No. 12 cultured for 20 hours in trypto-soy broth, using 0.25 ml syringe with 0.25 mm needle. The mice were restrained from drinking water for a period from 1 day before to 1 day after the infection and treated twice a day for 3 days starting on the day of infection. On the 5th day after infection, the kidneys were harvested for the detection of the bacteria, transversely bisected and stamped on King A Agar, which were incubated at 37° C. overnight. No bacterial finding in the kidneys was regarded as protected from the ascending kindey infection. ED50 values were calculated by probit analysis.

[3] = tested on: Pseudomonas aeruginosa Tsuchijima; experiment: In vitro antibacterial activity (MIC), Pseudomonas aeruginosa Tsuchijima; assay type: cell-based; settings: read-out: minimum inhibitory concentration (MIC)
Excerpt: as §1

[4] = tested on: Streptococcus faecalis P-2473; experiment: In vitro antibacterial activity (MIC), Streptococcus faecalis P-2473; assay type: cell-based; settings: Enterococcus faecalis
Excerpt: as §1

[5] = tested on: Pseudomonas aeruginosa No. 12; experiment: In vitro antibacterial activity (MIC), Pseudomonas aeruginosa No. 12; assay type: cell-based; settings: Pseudomonas aeruginosa No. 12; read-out: minimum inhibitory concentration (MIC)
Excerpt: as §1

[6] = tested on: Corynebacterium pyogenes C-21; experiment: In vitro antibacterial activity (MIC), Corynebacterium pyogenes C-21; assay type: cell-based; settings: Rhodococcus (subgen. Prescottella) equi, C21; Corynebacterium pyogenes C-21; read-out: minimum inhibitory concentration (MIC)
Excerpt: as §1

Proteus mirabilis P-2381 = experiment: In vitro antibacterial activity (MIC), Proteus mirabilis P-2381; assay type: cell-based
Excerpt: as §1

[7] = tested on: Escherichia coli NIHJ JC-2; experiment: In vitro antibacterial activity (MIC), Escherichia coli NIHJ JC-2; assay type: cell-based
Excerpt: as §1

in vivo = settings: mouse, in vivo, po
Description: The number of dead mice was counted after 7 days, and the value of median lethal dose (LD50, mg/kg) was calculated in accordance with the Behrens-Kaerber method.

[8] = tested on: Gram-positive bacteria and Gram-negative bacteria; experiment: In vitro antibacterial activity against 19 strains of bacteria (overall); assay type: cell-based; settings: comparisons are with compounds of the invention
Excerpt: as §1

[9] = tested on: Serratia marcescens IFC 3736; experiment: In vitro antibacterial activity (MIC), Serratia marcescens IFC 3736; assay type: cell-based
Excerpt: as §1

Proteus morganii Kono = experiment: In vitro antibacterial activity (MIC), Proteus morganii Kono; assay type: cell-based; settings: Morganella morganii, read-out: minimum inhibitory concentration (MIC)
Excerpt: as §1

[10] = tested on: Staphylococcus aureus No. 50774; experiment: In vitro antibacterial activity (MIC), Staphylococcus aureus No. 50774; assay type: cell-based; settings: Staphylococcus aureus No. 50774; read-out: minimum inhibitory concentration (MIC)
Excerpt: as §1

Escherichia coli P-140a = experiment: In vitro antibacterial activity (MIC), Escherichia coli P-140a; assay type: cell-based; settings: read-out: minimum inhibitory concentration (MIC)
Excerpt: as §1

Escherichia coli P-5101 [11] = experiment: In vitro antibacterial activity (MIC), Escherichia coli P-5101; assay type: cell-based; settings: P5101; Escherichia coli P-5101; read-out: minimum inhibitory concentration (MIC)
Excerpt: as §1

Plasma level in dogs = assay type: in vivo, Beagle dogs
Description: Two male Beagle dogs weighing 12 kg each were orally given a capsule containing one of compounds 1 and 2 at a dose of 25 mg/kg with 200 ml of milk respectively. Blood samples were taken by venipuncture from the two dogs at each 0.5, 1, 2, 3, 6, 8 and 10 hours after administration, and centrifuged individually to separate the plasma.
Drug levels were determined by the thin-layer cup-plate method using Escherichia coli Kp as an indicator organism.

Escherichia coli P-5101 [12] = experiment: in vivo efficacy against systemic infection in mice, Escherichia coli P-5101; settings: P5101, in Mus musculus, po, 168 h
Description: Male mice (ddY) weighing about 20 g
Intraperitoneal infection with (about
9 × 10^6 cells/mouse) of a bacterial
(§2) suspension in trypto-soy broth with 4% mucin.
(§3) Twice, about 5 minutes and 6 hours after infection.

[13] = tested on: Streptococcus pyogenes 65A; experiment: In vitro antibacterial activity (MIC), Streptococcus pyogenes 65A; assay type: cell-based; settings: Streptococcus pyogenes 65A; read-out: minimum inhibitory concentration (MIC)
Excerpt: as §1

[14] = tested on: Salmonella enteritidis No. 1891; experiment: In vitro antibacterial activity (MIC), Salmonella enteritidis No. 1891; assay type: cell-based; settings: Salmonella enterica; Salmonella enteritidis No. 1891; read-out: minimum inhibitory concentration (MIC)
Excerpt: as §1

[15] = tested on: Klebsiella pneumoniae No. 13; experiment: In vitro antibacterial activity (MIC), Klebsiella pneumoniae No. 13; assay type: cell-based; settings: Klebsiella pneumoniae No. 13; read-out: minimum inhibitory concentration (MIC)
Excerpt: as §1

[16] = tested on: Enterobacter cloacae P-2540; experiment: In vitro antibacterial activity (MIC), Enterobacter cloacae P-2540; assay type: cell-based
Excerpt: as §1

[17] = Urinary excretion in dogs; assay type: in vivo, Beagle dogs
[18] = tested on: Salmonella typhimurium 8-9; experiment: In vitro antibacterial activity (MIC), Salmonella typhimurium 8-9; assay type: cell-based; settings: Salmonella enterica; Salmonella typhimurium 8-9; read-out: minimum inhibitory concentration (MIC)
Excerpt: as §1

[19] = tested on: Pseudomonas aeruginosa No. 12; experiment: in vivo efficacy against systemic infection in mice, Pseudomonas aeruginosa No. 12; settings: NO.12, in Mus musculus, po, 168 h
Description: Male mice (ddY) weighing about 20 g
(3) Pseudomonas aeruginosa No. 12;
(about 5 × 10^3 cells/mouse) of a bacterial
as §2, §3
The numerals in the table show ED50 (mg/kg). ED50 values were

[20] = tested on: Gram-positive and Gram-negative bacteria; experiment: in vivo therapeutic efficacy against systemic infections in mice (overall); set-up: species or system mice (ddY)
[21] = tested on: Staphylococcus aureus No. 50774; experiment: in vivo efficacy against systemic infection in mice, Staphylococcus aureus No. 50774; settings: NO.50774, in Mus musculus, po, 336 h
Description: Male mice (ddY) weighing about 20 g
Intravenous infection with (about
5 × 10^8 cells/mouse) of a bacterial
as §3

[22] = tested on: Shigella flexneri 4a P-330; experiment: In vitro antibacterial activity (MIC), Shigella flexneri 4a P-330; assay type: cell-based; settings: 4AP330, read-out: minimum inhibitory concentration (MIC)
Excerpt: as §1

C=Cn1cc(C(=O)O)c(=O)c2cc(F)c(N3CCNCC3)nc21 [Compound 2, 6-Fluoro-1,4-dihydro-4-oxo-7-(1-piperazinyl)-1-vinyl-1,8-naphthyridine-3-carboxylic acid]
MIC (Shigella flexneri 2a): 0.1 µg/mL (≈ 0.314 µM)
MIC [1]: 1.56 µg/mL (≈ 4.9 µM)
ED50 [2]: 0.56 mg/kg
therapeutic effect against ascending kidney infection (in words) ([2]; compounds 1 and 2 (1, 1' and 2 elsewhere in the source) compared with compound D): clearly better than that of compound D
MIC ([3]; Pseudomonas aeruginosa): 0.2 µg/mL (≈ 0.628 µM)
MIC ([4]; P2473, Streptococcus faecalis P-2473, read-out: minimum inhibitory concentration (MIC)): 25 µg/mL (≈ 78.5 µM)
MIC [5]: 0.39 µg/mL (≈ 1.23 µM)
MIC [6]: 1.56 µg/mL (≈ 4.9 µM)
MIC (Proteus mirabilis P-2381; Proteus mirabilis, P2381, read-out: minimum inhibitory concentration (MIC)): 0.2 µg/mL (≈ 0.628 µM)
MIC ([7]; NIHJJC2, Escherichia coli NIHJ JC-2, read-out: minimum inhibitory concentration (MIC)): 0.1 µg/mL (≈ 0.314 µM)
LD50 at 168 h (in vivo): > 4000 mg/kg
antibacterial activity (in words) [8]: very high antibacterial activities
MIC ([9]; Serratia marcescens, IFC3736, read-out: minimum inhibitory concentration (MIC)): 0.2 µg/mL (≈ 0.628 µM)
MIC (Proteus morganii Kono; Proteus morganii Kono): 0.1 µg/mL (≈ 0.314 µM)
MIC [10]: 3.13 µg/mL (≈ 9.83 µM)
MIC (Escherichia coli P-140a; P140A, Escherichia coli P-140a): 0.1 µg/mL (≈ 0.314 µM)
MIC (Escherichia coli P-5101 [11]): 0.05 µg/mL (≈ 0.157 µM)
concentration at 2 h (Plasma level in dogs; dog, plasma, 2 hr after oral 25 mg/kg): 1500 ng/mL
concentration at 3 h (Plasma level in dogs; dog, plasma, 3 hr after oral 25 mg/kg): 2800 ng/mL
concentration at 6 h (Plasma level in dogs; dog, plasma, 6 hr after oral 25 mg/kg): 5500 ng/mL
concentration at 8 h (Plasma level in dogs; dog, plasma, 8 hr after oral 25 mg/kg): 5200 ng/mL
concentration at 10 h (Plasma level in dogs; dog, plasma, 10 hr after oral 25 mg/kg): 4400 ng/mL
absorption in the body by oral administration (in words) (Plasma level in dogs; oral 25 mg/kg): well absorbed
period after administration with plasma level higher than the MIC values against most bacteria (Plasma level in dogs; oral 25 mg/kg): at least 2 hours to even more than 10 hours
ED50 (Escherichia coli P-5101 [12]): 1.3 mg/kg
MIC [13]: 12.5 µg/mL (≈ 39.3 µM)
MIC [14]: 0.05 µg/mL (≈ 0.157 µM)
MIC [15]: 0.1 µg/mL (≈ 0.314 µM)
MIC ([16]; P2540, Enterobacter cloacae P-2540, read-out: minimum inhibitory concentration (MIC)): 1 µg/mL (≈ 3.14 µM)
urinary excretion (in words) ([17]; 24 hours): fairly good
concentration at 24 h ([17]; dog, urine, po, 25 mg/kg, urine pooled over 24 hours, oral 25 mg/kg): 326000 ng/mL
dose excreted at 24 h ([17]; dog, urine, po, 25 mg/kg, urine pooled over 24 hours, oral 25 mg/kg, read-out: urinary recovery): 29.4%
MIC [18]: 0.05 µg/mL (≈ 0.157 µM)
ED50 [19]: 2.4 mg/kg
therapeutic effect in vivo against Gram-negative bacteria, relative to compound D ([20]; Gram-negative including Pseudomonas aeruginosa): clearly better
therapeutic effect against Gram-negative bacteria, relative to compound 1 or 1' ([20]; systemic infection, Gram-negative): superior
therapeutic effect against Gram-negative bacteria, relative to compounds A, C, E, F, G, H and J ([20]; systemic infection, Gram-negative, especially Pseudomonas aeruginosa): better therapeutic effects
therapeutic effect against Gram-positive bacteria, relative to compound 1 or 1' ([20]; systemic infection, Gram-positive): inferior
ED50 [21]: 33.4 mg/kg
MIC [22]: 0.2 µg/mL (≈ 0.628 µM)

CCn1cc(C(=O)O)c(=O)c2cc(F)c(N3CCNCC3)cc21 [Compound D, 1-Ethyl-6-fluoro-1,4-dihydro-4-oxo-7-(1-piperazinyl)quinoline-3-carboxylic acid]
MIC (Shigella flexneri 2a): 0.1 µg/mL (≈ 0.313 µM)
MIC [1]: 0.39 µg/mL (≈ 1.22 µM)
ED50 [2]: 16.1 mg/kg
MIC ([3]; Pseudomonas aeruginosa Tsuchijima): 0.39 µg/mL (≈ 1.22 µM)
MIC ([4]; P2473, read-out: minimum inhibitory concentration (MIC)): 3.13 µg/mL (≈ 9.8 µM)
MIC [5]: 0.78 µg/mL (≈ 2.44 µM)
MIC [6]: 0.78 µg/mL (≈ 2.44 µM)
MIC (Proteus mirabilis P-2381; P2381, Proteus mirabilis P-2381, read-out: minimum inhibitory concentration (MIC)): 0.2 µg/mL (≈ 0.626 µM)
MIC ([7]; Escherichia coli, NIHJJC2, read-out: minimum inhibitory concentration (MIC)): 0.1 µg/mL (≈ 0.313 µM)
MIC ([9]; IFC3736, Serratia marcescens IFC 3736, read-out: minimum inhibitory concentration (MIC)): 0.2 µg/mL (≈ 0.626 µM)
MIC (Proteus morganii Kono): 0.1 µg/mL (≈ 0.313 µM)
MIC [10]: 0.78 µg/mL (≈ 2.44 µM)
MIC (Escherichia coli P-140a; Escherichia coli): 0.1 µg/mL (≈ 0.313 µM)
MIC (Escherichia coli P-5101 [11]): 0.05 µg/mL (≈ 0.157 µM)
ED50 (Escherichia coli P-5101 [12]): 4.7 mg/kg
MIC [14]: 0.05 µg/mL (≈ 0.157 µM)
MIC [15]: 0.2 µg/mL (≈ 0.626 µM)
MIC ([16]; Enterobacter cloacae, P2540, read-out: minimum inhibitory concentration (MIC)): 0.1 µg/mL (≈ 0.313 µM)
MIC [18]: 0.05 µg/mL (≈ 0.157 µM)
ED50 [19]: 15.5 mg/kg
ED50 [21]: 21.9 mg/kg
MIC [22]: 0.2 µg/mL (≈ 0.626 µM)
